From ChEMBL document CHEMBL4680314, “Discovery of potent glycogen synthase kinase 3/cholinesterase inhibitors with neuroprotection as potential therapeutic agent for Alzheimer's disease” (Bioorg Med Chem, 2021)
The source made the active and inactive calls. The calls are words filed in the database; no cut-off is given here.

Assays:
Acetylcholinesterase = Acetylcholinesterase (Homo sapiens, UniProt P22303); experiment: Inhibition of human recombinant AChE expressed in HEK293 cells using acetylthiocholine iodide as substrate incubated for 10 mins by Ellman's method; format: cell-based
Cholinesterase = Cholinesterase (Homo sapiens, UniProt P06276); experiment: Inhibition of human BChE using butyrylthiocholineiodide as substrate incubated for 10 mins by Ellman's method
[1] = target: Mitogen-activated protein kinase 12 (Homo sapiens, UniProt P53778); experiment: Inhibition of p38MAPK gamma (unknown origin) by ATP competitive based analysis
[2] = target: Glycogen synthase kinase-3 beta (Homo sapiens, UniProt P49841); experiment: Inhibition of GSK3beta (unknown origin) by ATP competitive based analysis
[3] = target: Mitogen-activated protein kinase 14 (Homo sapiens, UniProt Q16539); experiment: Inhibition of p38MAPK alpha (unknown origin) by ATP competitive based analysis
[4] = target: Dual specificity tyrosine-phosphorylation-regulated kinase 1A (Homo sapiens, UniProt Q13627); experiment: Inhibition of DYRK1A (unknown origin) by ATP competitive based analysis
[5] = target: Mitogen-activated protein kinase 9 (Homo sapiens, UniProt P45984); experiment: Inhibition of JNK2 (unknown origin) by ATP competitive based analysis
[6] = target: Mitogen-activated protein kinase 10 (Homo sapiens, UniProt P53779); experiment: Inhibition of JNK3 (unknown origin) by ATP competitive based analysis
[7] = target: Cyclin-dependent kinase 2 (Homo sapiens, UniProt P24941); experiment: Inhibition of CDK2 (unknown origin) by ATP competitive based analysis
[8] = target: Cyclin-dependent kinase 1 (Homo sapiens, UniProt P06493); experiment: Inhibition of CDK1 (unknown origin) by ATP competitive based analysis
[9] = target: Glycogen synthase kinase-3 beta (Mus musculus, UniProt Q9WV60); experiment: Inhibition of GSK3beta in mouse N2a cells overexpressing human tau assessed as reduction in tau phosphorylation at Ser396 residue incubated for 6 hrs by Western blot analysis; format: cell-based
[10] = target: Glycogen synthase kinase-3 beta (Mus musculus) (UniProt Q9WV60); experiment: Inhibition of GSK3beta in mouse N2a cells overexpressing human tau assessed as reduction in tau phosphorylation at Ser396 residue at 6 uM incubated for 6 hrs by Western blot analysis relative to control; format: cell-based
[11] = target: Glycogen synthase kinase-3 beta (Mus musculus) (UniProt Q9WV60); experiment: Inhibition of GSK3beta in mouse N2a cells overexpressing human tau assessed as tau phosphorylation at Ser396 residue at 0.074 uM incubated for 6 hrs by Western blot analysis (reference value: […] %); format: cell-based; design: scale not given: the % may be the effect or the level left
[12] = target: Glycogen synthase kinase-3 beta (Mus musculus) (UniProt Q9WV60); experiment: Inhibition of GSK3beta in mouse N2a cells overexpressing human tau assessed as tau phosphorylation at Ser396 residue at 0.22 uM incubated for 6 hrs by Western blot analysis (reference value: […] %); format: cell-based; design: scale not given: the % may be the effect or the level left
[13] = target: Glycogen synthase kinase-3 beta (Mus musculus) (UniProt Q9WV60); experiment: Inhibition of GSK3beta in mouse N2a cells overexpressing human tau assessed as tau phosphorylation at Ser396 residue at 0.67 uM incubated for 6 hrs by Western blot analysis (reference value: […] %); format: cell-based; design: scale not given: the % may be the effect or the level left
[14] = Drug uptake in mouse BV-2 cells at 25 uM incubated for 1 hr measured per million cells by LC-MS/MS analysis; format: ADME, cell-based; conditions: bv-2, 1 h
BV-2 [15] = experiment: Anti-inflammatory activity in mouse BV-2 cells assessed as reduction in LPS-induced IL-1beta production incubated for 1 hr followed by LPS stimulation and measured after 24 hrs by ELISA; format: functional, cell-based; conditions: dose 2-8 µM, time 25.0 hrs
BV-2 [16] = experiment: Anti-inflammatory activity in mouse BV-2 cells assessed as reduction in LPS-induced IL-1beta expression at 4 uM incubated for 1 hr followed by LPS stimulation and measured after 24 hrs by immunofluorescence based laser confocal microscopy; format: functional, cell-based; conditions: time 25.0 hrs
[17] = Half life in Sprague-Dawley rat at 10 mg/kg, po measured upto 24 hrs by LC-MS/MS analysis; format: ADME, organism-based; conditions: in vivo
[18] = Tmax in Sprague-Dawley rat at 10 mg/kg, po measured upto 24 hrs by LC-MS/MS analysis; format: ADME, organism-based; conditions: in vivo
[19] = AUC (0 to 24 hrs) in Sprague-Dawley rat at 10 mg/kg, po measured upto 24 hrs by LC-MS/MS analysis; format: ADME, organism-based; design: route oral, dose 10 mg/kg, time <=24; conditions: in vivo
[20] = AUC (0 to infinity) in Sprague-Dawley rat at 10 mg/kg, po by LC-MS/MS analysis; format: ADME, organism-based; design: route oral, time infinity, dose 10 mg/kg; conditions: in vivo
[21] = Volume of distribution in Sprague-Dawley rat at 10 mg/kg, po measured upto 24 hrs by LC-MS/MS analysis; format: ADME, organism-based; conditions: in vivo
[22] = Clearance in Sprague-Dawley rat at 10 mg/kg, po measured upto 24 hrs by LC-MS/MS analysis; format: ADME, organism-based; conditions: in vivo
[23] = Tmax in Sprague-Dawley rat at 5 mg/kg, iv measured upto 24 hrs by LC-MS/MS analysis; format: ADME, organism-based; conditions: in vivo
[24] = AUC (0 to infinity) in Sprague-Dawley rat at 5 mg/kg, iv by LC-MS/MS analysis; format: ADME, organism-based; design: route intravenous, dose 5 mg/kg; conditions: in vivo
[25] = Volume of distribution in Sprague-Dawley rat at 5 mg/kg, iv measured upto 24 hrs by LC-MS/MS analysis; format: ADME, organism-based; conditions: in vivo
[26] = Plasma concentration in ICR mouse at 15 mg/kg, po measured after 90 mins by LC-MS/MS analysis; format: ADME, organism-based
[27] = Toxicity in ICR mouse assessed as reduction in body weight at 15 mg/kg, po; format: organism-based; conditions: in vivo
Homo sapiens [28] = organism: Homo sapiens; experiment: Selectivity index, ratio of IC50 for ERK1 (unknown origin) to IC50 for GSK-3 beta (unknown origin) by ATP competitive based analysis
Homo sapiens [29] = organism: Homo sapiens; experiment: Selectivity index, ratio of IC50 for p38MAPK delta (unknown origin) to IC50 for GSK-3 beta (unknown origin) by ATP competitive based analysis
Homo sapiens [30] = organism: Homo sapiens; experiment: Selectivity index, ratio of IC50 for GSK3alpha (unknown origin) to IC50 for GSK-3 beta (unknown origin) by ATP competitive based analysis
Homo sapiens [31] = organism: Homo sapiens; experiment: Selectivity index, ratio of IC50 for p38MAPK alpha (unknown origin) to IC50 for GSK-3 beta (unknown origin) by ATP competitive based analysis
Homo sapiens [32] = organism: Homo sapiens; experiment: Selectivity index, ratio of IC50 for p38MAPK beta (unknown origin) to IC50 for GSK-3 beta (unknown origin) by ATP competitive based analysis
Homo sapiens [33] = organism: Homo sapiens; experiment: Selectivity index, ratio of IC50 for JNK3 (unknown origin) to IC50 for GSK-3 beta (unknown origin) by ATP competitive based analysis
Homo sapiens [34] = organism: Homo sapiens; experiment: Selectivity index, ratio of IC50 for CDK2 (unknown origin) to IC50 for GSK-3 beta (unknown origin) by ATP competitive based analysis
Homo sapiens [35] = organism: Homo sapiens; experiment: Selectivity index, ratio of IC50 for CDK1 (unknown origin) to IC50 for GSK-3 beta (unknown origin) by ATP competitive based analysis
Homo sapiens [36] = organism: Homo sapiens; experiment: Selectivity index, ratio of IC50 for CDK7 (unknown origin) to IC50 for GSK-3 beta (unknown origin) by ATP competitive based analysis
BV-2 [37] = experiment: Cytotoxicity against mouse BV-2 cells assessed as effect on cell morphology; format: cell-based
in vitro = conditions: PAMPA
Description: Effective permeability of compound in PBS/EtOH buffer (7:3) at 25 ug/ml incubated for 18 hrs by PAMPA-BBB assay

Sequence of Glycogen synthase kinase-3 beta (Mus musculus) (Q9WV60 whole entry, looked up): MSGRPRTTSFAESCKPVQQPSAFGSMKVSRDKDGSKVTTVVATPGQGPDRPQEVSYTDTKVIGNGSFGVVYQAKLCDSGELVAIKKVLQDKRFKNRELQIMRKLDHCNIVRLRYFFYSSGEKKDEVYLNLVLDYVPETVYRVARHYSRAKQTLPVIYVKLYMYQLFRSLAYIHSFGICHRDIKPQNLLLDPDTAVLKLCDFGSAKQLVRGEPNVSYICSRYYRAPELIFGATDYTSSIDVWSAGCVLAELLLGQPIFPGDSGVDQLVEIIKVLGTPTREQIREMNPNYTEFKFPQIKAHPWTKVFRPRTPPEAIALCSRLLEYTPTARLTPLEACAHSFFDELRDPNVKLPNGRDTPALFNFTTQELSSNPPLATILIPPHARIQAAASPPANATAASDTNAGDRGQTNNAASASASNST
Sequence of Acetylcholinesterase (P22303 whole entry): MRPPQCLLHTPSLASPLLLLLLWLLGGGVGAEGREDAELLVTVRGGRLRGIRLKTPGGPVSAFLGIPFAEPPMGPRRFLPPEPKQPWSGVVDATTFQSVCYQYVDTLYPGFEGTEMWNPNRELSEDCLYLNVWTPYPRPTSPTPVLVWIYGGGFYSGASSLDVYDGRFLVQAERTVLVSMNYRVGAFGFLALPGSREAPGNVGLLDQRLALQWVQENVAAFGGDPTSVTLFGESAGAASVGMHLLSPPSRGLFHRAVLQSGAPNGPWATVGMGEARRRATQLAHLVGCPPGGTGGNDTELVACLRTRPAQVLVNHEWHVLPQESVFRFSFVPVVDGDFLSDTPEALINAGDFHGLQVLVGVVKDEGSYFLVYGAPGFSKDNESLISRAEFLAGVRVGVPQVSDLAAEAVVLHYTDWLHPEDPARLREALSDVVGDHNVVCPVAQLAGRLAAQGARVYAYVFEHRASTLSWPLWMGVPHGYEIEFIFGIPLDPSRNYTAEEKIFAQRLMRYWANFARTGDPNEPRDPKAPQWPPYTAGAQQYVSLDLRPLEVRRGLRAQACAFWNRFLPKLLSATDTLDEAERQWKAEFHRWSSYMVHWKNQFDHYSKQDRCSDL
Sequence of Cholinesterase (P06276 whole entry): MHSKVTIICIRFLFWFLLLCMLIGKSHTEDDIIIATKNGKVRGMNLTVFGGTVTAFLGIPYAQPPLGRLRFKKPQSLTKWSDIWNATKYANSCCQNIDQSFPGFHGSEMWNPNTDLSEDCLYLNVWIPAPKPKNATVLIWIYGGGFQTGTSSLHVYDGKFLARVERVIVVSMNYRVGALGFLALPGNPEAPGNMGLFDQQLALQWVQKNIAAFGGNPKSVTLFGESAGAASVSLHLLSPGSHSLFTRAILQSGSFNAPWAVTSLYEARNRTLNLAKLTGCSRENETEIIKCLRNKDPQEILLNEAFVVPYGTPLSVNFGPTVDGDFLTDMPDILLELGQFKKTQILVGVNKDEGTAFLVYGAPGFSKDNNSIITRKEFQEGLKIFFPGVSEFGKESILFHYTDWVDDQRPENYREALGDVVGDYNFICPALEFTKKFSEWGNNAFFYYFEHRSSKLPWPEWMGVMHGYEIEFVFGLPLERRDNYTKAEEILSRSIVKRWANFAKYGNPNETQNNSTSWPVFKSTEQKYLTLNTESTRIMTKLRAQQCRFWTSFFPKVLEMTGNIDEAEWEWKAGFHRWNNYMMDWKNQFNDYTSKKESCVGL
Sequence of Glycogen synthase kinase-3 beta (Homo sapiens, UniProt P49841) (P49841 whole entry): as the sequence (Q9WV60 whole entry, looked up) above, with P390T, A392T, T400A, A402T counted along it
Sequence of Mitogen-activated protein kinase 12 (P53778 whole entry): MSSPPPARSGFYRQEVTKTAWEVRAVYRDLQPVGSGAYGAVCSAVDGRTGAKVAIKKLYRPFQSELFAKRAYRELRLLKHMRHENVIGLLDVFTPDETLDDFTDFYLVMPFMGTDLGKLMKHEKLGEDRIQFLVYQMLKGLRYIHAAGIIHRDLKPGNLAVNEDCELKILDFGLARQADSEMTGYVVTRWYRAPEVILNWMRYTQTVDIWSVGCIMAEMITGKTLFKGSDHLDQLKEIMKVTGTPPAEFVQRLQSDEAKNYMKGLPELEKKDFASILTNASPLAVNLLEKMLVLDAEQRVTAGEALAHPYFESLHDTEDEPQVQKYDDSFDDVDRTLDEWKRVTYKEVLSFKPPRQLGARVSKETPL
Sequence of Cyclin-dependent kinase 1 (P06493 whole entry): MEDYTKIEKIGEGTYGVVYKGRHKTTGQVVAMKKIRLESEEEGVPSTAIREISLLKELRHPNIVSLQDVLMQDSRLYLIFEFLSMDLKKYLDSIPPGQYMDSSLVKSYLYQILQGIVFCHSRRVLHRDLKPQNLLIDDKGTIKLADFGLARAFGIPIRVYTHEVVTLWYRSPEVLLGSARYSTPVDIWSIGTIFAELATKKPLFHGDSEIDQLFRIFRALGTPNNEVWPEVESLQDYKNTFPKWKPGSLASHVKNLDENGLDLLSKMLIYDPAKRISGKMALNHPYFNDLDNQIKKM
Sequence of Mitogen-activated protein kinase 14 (Q16539 whole entry): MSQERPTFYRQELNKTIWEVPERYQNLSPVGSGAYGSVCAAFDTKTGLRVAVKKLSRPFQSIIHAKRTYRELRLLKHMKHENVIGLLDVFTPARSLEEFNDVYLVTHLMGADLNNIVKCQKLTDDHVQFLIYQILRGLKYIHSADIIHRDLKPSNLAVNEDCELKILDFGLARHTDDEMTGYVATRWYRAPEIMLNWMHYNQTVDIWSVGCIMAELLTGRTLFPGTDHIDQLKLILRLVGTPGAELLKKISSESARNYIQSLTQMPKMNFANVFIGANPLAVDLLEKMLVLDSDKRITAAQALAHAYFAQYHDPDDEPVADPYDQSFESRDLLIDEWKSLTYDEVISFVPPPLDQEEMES
Sequence of Glycogen synthase kinase-3 beta (Mus musculus, UniProt Q9WV60) (Q9WV60 whole entry): as the sequence (Q9WV60 whole entry, looked up) above
Sequence of Mitogen-activated protein kinase 9 (P45984 whole entry): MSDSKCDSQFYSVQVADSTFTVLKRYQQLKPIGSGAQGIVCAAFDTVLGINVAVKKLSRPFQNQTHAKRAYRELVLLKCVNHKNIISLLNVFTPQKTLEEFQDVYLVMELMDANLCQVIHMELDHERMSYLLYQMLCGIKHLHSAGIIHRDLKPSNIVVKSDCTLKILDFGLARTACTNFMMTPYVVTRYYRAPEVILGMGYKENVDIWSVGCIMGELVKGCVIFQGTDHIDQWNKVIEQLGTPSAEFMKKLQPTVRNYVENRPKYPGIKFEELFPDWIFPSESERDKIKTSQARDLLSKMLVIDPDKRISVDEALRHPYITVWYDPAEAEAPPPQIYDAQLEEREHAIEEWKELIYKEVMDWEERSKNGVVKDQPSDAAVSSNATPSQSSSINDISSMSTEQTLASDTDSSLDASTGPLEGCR
Sequence of Mitogen-activated protein kinase 10 (P53779 whole entry): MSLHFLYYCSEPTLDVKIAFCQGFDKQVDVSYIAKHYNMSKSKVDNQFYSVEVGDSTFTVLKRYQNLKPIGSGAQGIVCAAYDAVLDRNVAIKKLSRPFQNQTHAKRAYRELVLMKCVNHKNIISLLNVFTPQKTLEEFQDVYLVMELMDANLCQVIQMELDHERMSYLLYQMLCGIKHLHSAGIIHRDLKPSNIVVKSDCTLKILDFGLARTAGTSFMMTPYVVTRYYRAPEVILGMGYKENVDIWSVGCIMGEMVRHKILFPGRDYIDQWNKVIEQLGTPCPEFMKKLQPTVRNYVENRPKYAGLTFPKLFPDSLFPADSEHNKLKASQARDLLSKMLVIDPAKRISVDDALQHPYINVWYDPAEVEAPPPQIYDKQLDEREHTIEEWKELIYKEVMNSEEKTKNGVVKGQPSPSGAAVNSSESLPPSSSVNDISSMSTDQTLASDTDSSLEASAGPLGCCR

Work on `NC(=O)c1sc(-c2ccnc(NC(=O)C3CC3)c2)nc1OCCCC1CCN(Cc2ccc(F)cc2)CC1` yielded an IC50 (Acetylcholinesterase) of 310 nM, an IC50 (Cholinesterase) of 3410 nM and an IC50 [1] greater than 300 nM. The IC50 [2] was 16.1 nM, the IC50 [3] was greater than 300 nM and the IC50 [4] was 8.1 nM. It also gave an IC50 [5] greater than 300 nM, an IC50 [6] greater than 300 nM and an IC50 [7] greater than 300 nM. The IC50 [8] was greater than 300 nM, the DC50 [9] was 380 nM and the Imax [10] was 93%. For the same compound, the Activity [11] was 91.1%, the Activity [12] was 63.3% and the Activity [13] was 32.9%. The Drug uptake [14] was 722 ng, the Activity (BV-2 [15]) was “Dose-dependent effect” and the Activity (BV-2 [16]) was “Active”. For the same compound, the half-life [17] was 5.8 h, the Tmax [18] was 4.7 h and the AUC(0-t) [19] was 1160 ng·h/mL. It also gave an AUC(0-inf) [20] of 1260 ng·h/mL, a Vd [21] of 60.7 L/kg and a CL/F [22] of 112 mL/min/kg. It also gave a Tmax [23] of 4.98 min, an AUC(0-inf) [24] of 1980 ng·h/mL and a Vd [25] of 15.8 L/kg. For the same compound, the concentration at 1.5 h [26] was 265 ng/mL, the Activity [27] was “Non-Toxic” and the Ratio IC50 (Homo sapiens [28]) was 200. For the same compound, the Ratio IC50 (Homo sapiens [29]) was 200, the Ratio IC50 (Homo sapiens [30]) was 200 and the Ratio IC50 (Homo sapiens [31]) was 200. The Ratio IC50 (Homo sapiens [32]) was 200, the Ratio IC50 (Homo sapiens [33]) was 200 and the Ratio IC50 (Homo sapiens [34]) was 200. The Ratio IC50 (Homo sapiens [35]) was 200, the Ratio IC50 (Homo sapiens [36]) was 200 and the Activity (BV-2 [37]) was “Non-Toxic”. For the same compound, the Papp at 18 h, 25 ug/ml (in vitro) was 8.4 ×10⁻⁶ cm/s.
